Measurements from US4835185A, “Immunomodulator for improving commercial performance of domestic animals” (Iowa State University Research Foundation, Inc., priority 1987, dated 1989).

Tests used:
[1] = test system: cortisol in plasma; experiment: Lamb trials: plasma cortisol; assay type: in vivo, lambs (sheep); settings: * p<.05
Excerpt: The lambs used in Trial 1 consisted of medium-frame crossbred wethers and ewes weighing 26 to 31 kg. The lambs used in Trial 2 consisted of medium-framced crossbred rams weighing 18 to 25 kg. Each animal was raised as a single. The lambs were housed in a temperature controlled room in individual pens with nipple waterers. When received, the lamps were vaccinated for enterotoxemia. They were allowed to adjust to the pens and the environment for 10 days. One day before the trial began, the lambs were sheared and placed on their respective dietary treatments. The lamps were allotted blocking by weight and sex into two dietary treatment groups. Growth and feed consumption were measured bi-weekly. All lamb weights were taken after a 12 to 16 hour fast. The animals were slaughtered at 50 kg in the Iowa State University Meat laboratory facilities at Ames, Iowa. At slaughter, the lamb's internal organs and wool were weighed and sampled, loin eye area and back fat measured, and carcasses separated into fat, lean, and bone.
The SMB (soybean meal-containing) and the CGM (corn-gluten-containing) diets (compositions given in Table A) were fed twice per day in quantities ensuring that feed was before the lambs at all times. The diets were calculated to be equivalent to each other with respect to metabolizable protein, ether extract, fiber, and minerals with the exception of calcium and phosphorus. […] The CGM diet was calculated to contain slightly more energy (TDN 81.7 vs. 79.0, NEm 1.88 v. 1.86, Neg. 1.23 vs. 1.22). […] The soybean meal ingredient contained about 3.5 wt % leucine, while the corn gluten meal ingredient contained about 15 wt % leucine. The CGM diet was therefore higher in leucine than the SBM diet, containing an estimated 16 wt % leucine as compared with an estimated 8 wt % leucine based on total crude protein in the diet.
^(7) Amount of cortisol in plasma (ng/ml).

[2] = test system: Plasma Cortisol; experiment: Feedlot steers: plasma cortisol; assay type: in vivo, steers (cattle); settings: 150 days
Excerpt: Seventy-two medium-frame steers, with an average weight of 578 lbs., were allotted to 12 pens of 6 animals each. A common basal diet was fed ad libitum to all cattle. This consisted of 48.9% cracked corn, 24.4% ground corn cobs, 17.8% expeller Soybean meal, 7.0% molasses (liquid), 1.3% limestone, 0.25% dicalcium phosphate, 2% salt, 0.02% trace mineral premix, and 0.1% vitamin A premix for the first 58 days of the experiment, and was changed to 54.3% cracked corn and 12.8% expeller soybean meal for the remaining 103 days of the experiment. Three pens were assigned to each treatment. The treatments consisted of four levels of Ca-KIC in a pelleted supplement: 0%, 0.02%, 0.07%, and 0.20% of the basal diet (0.05% control pellets, 0.04% KIC pellets, 0.14% KIC pellets, and 0.40% KIC pellets). The pellets were preweighted and top-dressed on the basal diet twice daily. After 58 days, the cattle on the 0.20% KIC were removed from the experiment. The cattle were not implanted with a growth promotant nor were ionophores included in the diet. […] Loin eye area and fat thickness over the loin were measured on each carcass. […]
KIC was obtained from SOBAC, Paris, France. Zein was purchased from Freeman Industries, Tuckahoe, N.Y. Each experiment was statistically analyzed by analysis of variance with three pens per treatment. […]

## CC(C)CC(=O)C(=O)O [KIC, alpha-ketoisocaproate]
[1]; Trial 1, CGM diet, 1% KIC (0%: 1.04)
  CORTISOL: amount of cortisol in plasma: .65 ng/mL
[1]; Trial 1, SBM diet, 1% KIC (0%: .99)
  CORTISOL: amount of cortisol in plasma: .83 ng/mL
[1]; Trial 2, CGM diet, 1% KIC (0%: 3.77)
  CORTISOL: amount of cortisol in plasma: 2.43 ng/mL
[1]; Trial 2, SBM diet, 1% KIC (0%: 2.70)
  CORTISOL: amount of cortisol in plasma: 2.25 ng/mL
[2]; .02% dietary KIC (0%: 4.08)
  Plasma Cortisol: 3.74 µg/dL
[2]; .07% dietary KIC (0%: 4.08)
  Plasma Cortisol: 3.2 µg/dL
